Source: patent US20180116933A1, “ANTI-OXIDATIVE OR ANTI-AGING COMPOSITION CONTAINING 5-ADAMANTAN-1-YL-N-(2,4-DIHYDROXYBENZYL)-2,4-DIMETHOXYBENZAMIDE” (Amorepacific Corporation, priority 2015, published 2018)

Columns and labels:
[1] = test system: Raw 264.7 cells; experiment: Cytotoxicity test (MTT method) in Raw 264.7 cells; format: cell-based
Description: RAW264.7 cells (obtained from ATCC (Rockville, Md., USA) as a murine macrophage cell line) were incubated in RPMI 1640 medium supplemented with FBS (10% heat-inactivated fetal bovine serum; Gibco, Grand Island, N.Y., USA), glutamine, antibiotics (penicillin and streptomycin) at 37° C. and 5% CO2.
In all experiments, cells were detached with a cell scraper. When cells were incubated at a concentration of 2×10^6 cells/mL in the experiment, the percentage of dead cells was 1% or less (confirmed by a trypan blue dye exclusion method).
In order to determine the appropriate concentration of extract treatment for anti-inflammatory evaluation of 5-adamantan-1-yl-N-(2,4-dihydroxybenzyl)-2,4-dimethoxybenzamide, the cytotoxicity of 5-adamantan-1-yl-N-(2,4-dihydroxybenzyl)-2,4-dimethoxybenzamide at each concentration was evaluated in the cells used in the experiments.
Raw 264.7 cells in the subculture were plated on a well plate at a density of […]. After 18 hours of cell incubation, the cells were subjected to a sample treatment so that the concentration of 5-adamantan-1-yl-N-(2,4-dihydroxybenzyl)-2,4-dimethoxybenzamide (referred to as ‘AP736’ in FIG. 1) was from 0 to 30 μM. The cells were incubated for 8 hours or 24 hours in an incubator. The cytotoxic effect was evaluated by the conventional MTT method. Before the last 3 hours of incubation, 10 μL of MTT {3-[4,5-dimethylthiazol-2-yl]-2,5-diphenyltetrazolium bromide} solution (10 mg/mL in phosphate-buffered saline, pH 7.4) was added to each well. To each well, 15% SDS (sodium dodecyl sulfate) was added to terminate the reaction, and the formazan crystal was then dissolved therein. Thereafter, the absorbance at 570 nm was measured on a microplate reader.

[2] = DPPH free radical scavenging evaluation; format: biochemical; conditions: 0 to 200 μg/ml, DPPH 0.2 mM in methanol, 30 minutes, absorbance 517 nm (FIG. 2)
Description: The DPPH free radical scavenging evaluation method was performed as follows.
In 5-adamantan-1-yl-N-(2,4-dihydroxybenzyl)-2,4-dimethoxybenzamide (referred to as ‘AP736’ in FIG. 2) prepared in Example, a reaction product adjusted to a concentration of from 0 to 200 μg/ml and a methanol solution of DPPH (0.2 mM) were incubated for 30 minutes. The absorbance of the solution was measured at 517 nm. The scavenging ability was expressed by the value obtained by comparing the absorbance of the solution to that (100%) of the control DPPH solution in % as presented in the following Mathematical Formula 1.

[3] = test system: matrix metalloprotease-1 (MMP-1); experiment: MMP-1 assay: UV-induced MMP-1 expression in HS68 human fibroblasts (MMP-1 ELISA kit); format: cell-based; conditions: UV-irradiated HS68 cells, 0.1, 0.5, and 1 μM, 48 hours (FIG. 3)
Description: In order to confirm the anti-aging effect of the sample, an experiment to see how much 5-adamantan-1-yl-N-(2,4-dihydroxybenzyl)-2,4-dimethoxybenzamide can inhibit the expression of matrix metalloprotease-1 (MMP-1) to be induced by ultraviolet (UV) rays was performed.
Human fibroblasts (HS68 cells, purchased from ATCC (Rockville, Md., USA)) were plated on a well plate at a density of 7.5×10^4 cells/well, then incubated in DMEM (Dulbecco's Modified Eagle's Medium) containing 10% FBS for 24 hours, then washed with PBS (phosphate-buffered saline), then 0.5 ml of PBS was added thereto, and the expression of MMP-1 was induced by irradiating the resultant incubated cells with ultraviolet rays. After changing to Serum-Free DMEM, the resultant was treated with 5-adamantan-1-yl-N-(2,4-dihydroxybenzyl)-2,4-dimethoxybenzamide (referred to as ‘AP736’ in FIG. 3) prepared in Example. The amount of the supernatant obtained after incubation for a certain period of time (48 hours) was measured by using an MMP-1 ELISA kit.
In other words, HS68 cells of human dermal fibroblasts were treated with ultraviolet rays to increase the expression of MMP-1, and the resulting HS68 cells were then treated with each sample to see whether the expression of MMP-1 decreased. The experimental results are illustrated in FIG. 3. […]

COc1cc(OC)c(C23CC4CC(CC(C4)C2)C3)cc1C(=O)NCc1ccc(O)cc1O [AP736, 5-adamantan-1-yl-N-(2,4-dihydroxybenzyl)-2,4-dimethoxybenzamide]
cell viability ([1]; 10 μM, 8 hours): about 100%
cell viability ([1]; 10 μM, 24 hours): about 100%
cell viability ([1]; 20 μM, 8 hours): about 100%
cell viability ([1]; 20 μM, 24 hours): about 100%
cell viability ([1]; 30 μM, 24 hours): about 80%
percentage of DPPH radical scavenging activity [2]: increases
expression of MMP-1 [3]: tended to decrease
